# Test system: male C57BL/6 mice
# Test: 55° C. warm-water tail-flick test (antinociception)
# Assay type: in vivo
# Conditions: Mus musculus; half maximal effective dose in mice; using one of: warm water tail-flick test, spared nerve injury, chronic constriction injury, or Complete Freund's adjuvant induced inflammatory pain (not stated which per compound); read-out: Biological Activity (ED50)
# Experimental: Antinociception was assessed using the 55° C. warm-water tail-flick test. The latency to the first sign of a rapid tail flick was taken as the behavioral endpoint. Each mouse was first tested for baseline latency by immersing its tail in the water and recording the time to response. Mice not responding within 2 secs were excluded from further testing. Responsive mice were then s.c. administered the test compound and tested for antinociception at 30 min, 60 min, 90 min, and 120 min time points afterward. Antinociception was calculated using the following formula: percentage of antinociception=100×(test latency−control latency)/(20−control latency).
# The following new compounds were also made and tested to determine the half maximal possible effective dose, or ED50 (mg/kg), in mice, using one of: the warm water tail-flick test as in Table II, spared nerve injury, chronic constriction injury, or Complete Freund's adjuvant induced inflammatory pain. The symbols in the last column are: + indicates ED 50>50 mg/kg; ++ indicates ED 50 is less than or equal to 30 mg/kg.
row,SMILES,ED50 [mg/kg]
1,"N#Cc1ccc(CC[C@@]2(C3OCC3(F)F)CCN(Cc3cccnc3)C2)cc1 (single isomer, unassigned) [Compound 197, 4-(2-((R)-3-((R or S)-3,3-difluorooxetan-2-yl)-1-(pyridin-3-ylmethyl)pyrrolidin-3-yl)ethyl) benzonitrile]",≤ 30
2,"Cc1ccc(CN2CC[C@@](CCc3ccc(C#N)cc3)(C3OCC3(F)F)C2)cn1 (single isomer, unassigned) [Compound 198, 4-(2-((R)-3-((R or S)-3,3-difluorooxetan-2-yl)-1-((6-methylpyridin-3-yl)methyl)pyrrolidin-3-yl)ethyl) benzonitrile]",≤ 30
3,"N#Cc1ccc(CC[C@@]2(C3OCC3(F)F)CCN(Cc3ccc(Cl)cc3)C2)cc1 (single isomer, unassigned) [Compound 199, 4-(2-((R)-1-(4-chlorobenzyl)-3-((R or S)-3,3-difluorooxetan-2-yl)pyrrolidin-3-yl)ethyl) benzonitrile]",≤ 30
4,"CC1(C)COC1[C@]1(CCc2ccc(C#N)cc2)CCN(Cc2ccc(C#N)cc2)C1 (single isomer, unassigned) [Compound 204, 4-(2-((R)-1-(4-cyanobenzyl)-3-((R or S)-3,3-dimethyloxetan-2-yl)pyrrolidin-3-yl)ethyl) benzonitrile]",≤ 30
5,"COc1ccc(CN2CC[C@@](CCc3ccc(C#N)cc3)(C3OCC3(C)C)C2)cc1 (single isomer, unassigned) [Compound 205, 4-(2-((R)-3-((R or S)-3,3-dimethyloxetan-2-yl)-1-(4-methoxybenzyl)pyrrolidin-3-yl)ethyl) benzonitrile]",≤ 30
6,"CC1(C)COC1[C@]1(CCc2ccc(C#N)cc2)CCN(Cc2ncc(Cl)cn2)C1 (single isomer, unassigned) [Compound 210, 4-(2-((R)-1-((5-chloropyrimidin-2-yl)methyl)-3-((R or S)-3,3-dimethyloxetan-2-yl)pyrrolidin-3-yl)ethyl)benzonitrile]",> 50
7,"CC1(C)COC1[C@]1(CCc2ccc(C#N)cc2)CCN(Cc2ncc(Cl)s2)C1 (single isomer, unassigned) [Compound 211, 4-(2-((R)-1-((5-chlorothiazol-2-yl)methyl)-3-((R or S)-3,3-dimethyloxetan-2-yl)pyrrolidin-3-yl)ethyl)benzonitrile]",≤ 30
8,"CC(C)(c1ccccc1)N1CC[C@](CCc2ccc(S(C)(=O)=O)cc2)(C(O)C(F)(F)F)C1 (single isomer, unassigned) [Compound 213, (R or S)-2,2,2-trifluoro-1-((S)-3-(4-(methylsulfonyl)phenethyl)-1-(2-phenylpropan-2-yl)pyrrolidin-3-yl)ethan-1-ol]",≤ 30
9,"CC(O)[C@]1(CCc2ccc(C#N)cc2)CCN(C(C)(C)c2ccc(C(F)(F)F)nc2)C1 (single isomer, unassigned) [Compound 214, 4-(2-((R)-3-((R or S)-1-hydroxyethyl)-1-(2-(6-(trifluoromethyl)pyridin-3-yl)propan-2-yl)pyrrolidin-3-yl)ethyl) benzonitrile]",≤ 30
10,"CC(O)[C@]1(CCc2ccc(F)cc2)CCN(C(C)(C)c2ccccn2)C1 (single isomer, unassigned) [Compound 216, (R or S)-1-((R)-3-(4-fluorophenethyl)-1-(2-(pyridin-2-yl)propan-2-yl)pyrrolidin-3-yl)ethan-1-ol]",> 50
11,"CC(C)(c1ccccn1)N1CC[C@](/C=C/c2ccc(S(C)(=O)=O)cc2)(C2CCCO2)C1 (single isomer, unassigned) [Compound 218, 2-(2-((R)-3-((E)-4-(methylsulfonyl)styryl)-3-((R or S)-tetrahydrofuran-2-yl)pyrrolidin-1-yl)propan-2-yl)pyridine]",> 50
12,"CC(O)[C@]1(CCc2ccc(S(C)(=O)=O)cc2)CCN(C(C)(C)c2ccc(Cl)cc2)C1 (single isomer, unassigned) [Compound 219, (R or S)-1-((R)-1-(2-(4-chlorophenyl)propan-2-yl)-3-(4-(methylsulfonyl)phenethyl)pyrrolidin-3-yl)ethan-1-ol]",> 50

# — patent US20240383882A1 (Ecstasy LLC, priority 2020, published 2024)
